Results reported in US20200331904A1, “3-AMINO-[1,2,4]-TRIAZOLE DERIVATIVES AND THEIR USE FOR CONTROLLING UNDESIRED PLANT GROWTH” (Bayer CropScience Aktiengesellschaft, priority 2017, published 2020).

Key:
Type in all cases: in vivo
Settings in all cases: Table B1, application rate 320 g/ha, scored visually after about 3 weeks vs untreated controls
Echinochloa crus-galli = test: Pre-emergence herbicidal efficacy, ECHCG
Description: (§1) C.1 Pre-Emergence Herbicidal Action and Crop Plant Compatibility
(§2) Seeds of monocotyledonous and dicotyledonous weed plants and crop plants are placed in plastic or organic planting pots and covered with soil. The compounds of the invention, formulated in the form of wettable powders (WP) or as emulsion concentrates (EC), are then applied onto the surface of the covering soil as aqueous suspension or emulsion with addition of 0.5% additive at a water application rate of […] (converted). After the treatment, the pots are placed in a greenhouse and kept under good growth conditions for the trial plants. After about 3 weeks, the effect of the preparations is scored visually in comparison with untreated controls as percentages. For example, 100% activity=the plants have died, 0% activity=like control plants.
(§3) ABUTH: Abutilon theophrasti ALOMY: Alopecurus myosuroides AMARE: Amaranthus retroflexus AVEFA: Avena fatua CYPES: Cyperus esculentus ECHCG: Echinochloa crus-galli LOLMU: Lolium multiflorum MATIN: Matricaria inodora PHBPU: Ipomoea purpurea POLCO: Polygonum convolvulus SETVI: Setaria viridis STEME: Stellaria media VERPE: Veronica persica VTOTR: Viola tricolor

Lolium rigidum = test: Pre-emergence herbicidal efficacy, LOLRI
Description: C.1 Pre-Emergence Herbicidal Action and Crop Plant Compatibility Seeds of monocotyledonous and dicotyledonous weed plants and crop plants are placed in plastic or organic planting pots and covered with soil. The compounds of the invention, formulated in the form of wettable powders (WP) or as emulsion concentrates (EC), are then applied onto the surface of the covering soil as aqueous suspension or emulsion with addition of 0.5% additive at a water application rate of […] (converted). After the treatment, the pots are placed in a greenhouse and kept under good growth conditions for the trial plants. After about 3 weeks, the effect of the preparations is scored visually in comparison with untreated controls as percentages. For example, 100% activity=the plants have died, 0% activity=like control plants. […] Here, for example, compound Nos. I-214 and I-196, when applied pre-emergence, have very good activity (80% to 100% herbicidal activity) against harmful plants such as Abutilon theophrasti, Amaranthus retroflexus, Echinochloa crus-galli, Lolium rigidum, Matricaria inodora, Polygonum convolvulus, Setaria viridis, Stellaria media, Veronica persica and Viola tricolor at an application rate of 0.32 kg of active substance or less per hectare. At the same time, some of the compounds according to the invention leave Gramineae crops such as barley, wheat, rye, millet/sorghum, corn, rice or sugar cane virtually undamaged when applied pre-emergence, even at high active compound dosages. In addition, some substances are also harmless to dicotyledonous crops such as soya, cotton, oilseed rape or sugar beet.

Setaria viridis = test: Pre-emergence herbicidal efficacy, SETVI
Description: as §1, §2, §3

Abutilon theophrasti = test: Pre-emergence herbicidal efficacy, ABUTH
Description: as §1, §2, §3

Amaranthus retroflexus = test: Pre-emergence herbicidal efficacy, AMARE
In short: (§4)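 Seeds were sown in pots and covered with soil; WP or EC formulations were sprayed onto the soil surface as aqueous suspension or emulsion with 0.5% additive. Pots were kept in a greenhouse, and after about 3 weeks damage was rated visually as percent versus untreated controls (100% = plants dead, 0% = like control).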

Matricaria inodora = test: Pre-emergence herbicidal efficacy, MATIN
In short: as §4

Polygonum convolvulus = test: Pre-emergence herbicidal efficacy, POLCO
Description: as §1, §2, §3

Stellaria media = test: Pre-emergence herbicidal efficacy, STEME
In short: as §4

Viola tricolor = test: Pre-emergence herbicidal efficacy, VIOTR
In short: as §4

Veronica persica = test: Pre-emergence herbicidal efficacy, VERPE
In short: as §4

SMILES | Herbicidal efficacy against ECHCG (Echinochloa crus-galli) [%] | Herbicidal efficacy against LOLRI (Lolium rigidum) [%] | Herbicidal efficacy against SETVI (Setaria viridis) [%] | Herbicidal efficacy against ABUTH (Abutilon theophrasti) [%] | Herbicidal efficacy against AMARE (Amaranthus retroflexus) [%] | Herbicidal efficacy against MATIN (Matricaria inodora) [%] | Herbicidal efficacy against POLCO (Polygonum convolvulus) [%] | Herbicidal efficacy against STEME (Stellaria media) [%] | Herbicidal efficacy against VIOTR (Viola tricolor) [%] | Herbicidal efficacy against VERPE (Veronica persica) [%]
Cc1ccc2c(c1)C(Nc1nc3n(n1)CCN(C(C)C)C3)C(C)C2 (centres unmarked) [Example I-152] | 100 | 100 | 100 | 100 | 100 | 100 | 100 | 100 | 100 | 100
Cc1ccc2c(c1)[C@H](Nc1nc3n(n1)CCN(C(=O)C1CC1)C3)CC2 [Example I-175] | 100 | 100 | 100 | 100 | 100 | 100 | 100 | 100 | 100 | 100
Cc1ccc2c(c1)[C@H](Nc1nc3n(n1)CCCS3)[C@@H](C)C2 [Example I-348] | 100 | 80 | 100 | 100 | 100 | 100 | 100 | 100 | 100 | 100
Cc1ccc2c(c1)[C@H](Nc1nc3n(n1)CCCS3)CCO2 [Example I-376] | 100 | 100 | 100 | 100 | 100 | 100 | 100 | 100 | 100 | 100
Cc1ccc2c(c1)C(Nc1nc3n(n1)CCCC[S+]3[O-])C(C)C2 (centres unmarked) [Example I-371] | 100 | 100 | 100 | 100 | 100 | 100 | 100 | 100 | 100 | 100
Cc1ccc2c(c1)[C@H](Nc1nc3n(n1)CCN(S(=O)(=O)C(C)C)C3)CC2 [Example I-197] | 90 | 80 | 100 | 100 | 100 | 100 | 80 | 100 | 100 | 100
Cc1ccc2c(c1)[C@H](Nc1nc3n(n1)CCCC[S+]3[O-])CCO2 (some centres unmarked) [Example I-380] | 100 | 80 | 100 | 100 | 100 | 100 | 100 | 100 | 100 | 100
Cc1ccc2c(c1)[C@H](Nc1nc3n(n1)CCN(S(C)(=O)=O)C3)CC2 [Example I-196] | 100 | 100 | 100 | 100 | 100 | 100 | 100 | 100 | 100 | 100
Cc1ccc2c(c1)C(Nc1nc3n(n1)CCN(C(=O)c1ccc(Cl)cc1)C3)C(C)C2 (centres unmarked) [Example I-171] | 90 | 100 | 100 | 100 | 100 | 100 | 100 | 100 | 100 | 100
Cc1ccc2c(c1)C(Nc1nc3n(n1)CCC(=O)N3CC1CC1)CCC2 (centres unmarked) [Example I-254] | 80 | 100 | 100 | 100 | 100 | 100 | 100 | 100 | 100 | 100
Cc1ccc2c(c1)C(Nc1nc3n(n1)CCCS3(=O)=O)CC2 (centres unmarked) [Example I-238] | 80 | 90 | 100 | 100 | 100 | 100 | 100 | 100 | 100 | 100
Cc1ccc2c(c1)C(Nc1nc3n(n1)CCC(=O)N3CC1CCCCC1)CC2 (centres unmarked) [Example I-256] | 90 | 80 | 100 | 100 | 100 | 100 | 100 | 100 | 100 | 100
Cc1ccc2c(c1)[C@H](Nc1nc3n(n1)CCN(C(=O)C1CC1)C3)CCC2 [Example I-182] | 90 | 100 | 100 | 100 | 100 | 100 | 100 | 100 | 100 | 100
Fc1ccc2c(c1)[C@H](Nc1nc3n(n1)CCCCS3)CCC2 [Example I-215] | 100 | 100 | 100 | 100 | 100 | 100 | 100 | 100 | 100 | 100
